Reference: US8715635B2, “Frictionless molecular rotary motors” (Technion Research & Development Foundation Limited, priority 2007, dated 2014)
In brackets after ≈: the same amount, converted by molar mass. Read-outs that look alike come from different tables or passages of the source.

Experiments:
[1] = Isothermal titration calorimetry (ITC) of CB[6] host with dicationic guest molecules; type: binding; details: in water at 30° C.
Procedure: Isothermal titration calorimetry (ITC) was previously employed to study complexation parameters of Compound 1 [63]. Measurement of the host-guest binding thermodynamic profile using ITC provides in a single experiment not only the binding constants (Kb) and binding stoichiometry (n), but also the differences of enthalpy (ΔH) and entropy (ΔS) of binding.
The experiment was carried out by loading the ITC sample cell with saturated aqueous solution of Compound 1 (1.4 ml) and titrating it with a neutral aqueous solution of the dicationic dihydrochloride salts of various exemplary guest molecules at concentrations that ranged from 3.3 mM to 5.0 mM. The heat generated during each injection was recorded (FIG. 1) and the thermodynamic parameters were acquired by non-linear least squares fit of the calorimetric titration data to a one-site binding model (Table 2).
A saturated solution of Compound 1 (0.4 mM) in water at pH=7 was prepared by stirring an excess of finely powdered Compound 1 overnight at 30° C. and filtering through a 100-μm micro-filter. Solutions of the guest molecules at concentrations of 3.3-6 mM, were prepared and filtered through a 100-μm micro-filter as well. Titration calorimetry measurements were performed with a VP-ITC calorimeter (Microcal, Northampton, Mass.) as previously described. Repeat determinations indicated errors of 3-10% in n, ΔH, degree, and K values over the most favorable concentration range. A solution of Compound 1 was titrated by 29 injections of 6 μL of guest molecule solutions at 30° C. each, and the titration data were analyzed using Origin2000 software.

[2] = cited from earlier work
[3] = Solubility; type: physicochemical; details: water at pH=7, 30° C.
[4] = cited from earlier work; remark: listed apart in the source

| SMILES | ΔH of binding [1] [kcal/mol] | ΔS of binding [1] | further results |
| --- | --- | --- | --- |
| NCCCCCCN [Compound 3′, 1,6-diaminohexane] | -13.760 ± 0.090 | -20.4 cal/(mol·K) | ΔS of binding (entropy term, text) ([1]; text values in J): −85.77 J/mol.° K; ΔH binding enthalpy ([1]; text values in KJ): -13.76 kcal/mol |
| O=C1N2CN3C(=O)N4CN5C(=O)N6CN7C(=O)N8CN9C(=O)N%10CN1C1C2N2CN%11C(=O)N(CN%12C(=O)N(CN%13C(=O)N(CN%14C(=O)N(CN1C2=O)C%10C9%14)C8C7%13)C6C5%12)C4C3%11 (stereo not drawn) [CB[5]] | – | – | solubility in aqueous acid ([2]; 3M HCl): about 60 mM |
| Cl.Cl.NCC#CC#CCN [Compound 4′, Hexa-2,4-diyne-1,6-diammonium dihydrochloride] | -0.696 ± 0.005 | 23.51 | – |
| O=C1N2CN3C(=O)N4CN5C(=O)N6CN7C(=O)N8CN9C(=O)N%10CN%11C(=O)N%12CN1C1C2N2CN%13C(=O)N(CN%14C(=O)N(CN%15C(=O)N(CN%16C(=O)N(CN%17C(=O)N(CN1C2=O)C%12C%11%17)C%10C9%16)C8C7%15)C6C5%14)C4C3%13 (stereo not drawn) [Compound 1, Cucurbit[6]uril] | – | – | solubility in aqueous acid ([2]; HCO2H/H2O (1:1)): 61 mM (≈ 60.8 mg/mL); concentration of saturated solution in water [3]: 400 µM; pKa value of the conjugate acid [4]: 3.02 |
| O=C1N2CN3C(=O)N4CN5C(=O)N6CN7C(=O)N8CN9C(=O)N%10CN%11C(=O)N%12CN%13C(=O)N%14CN1C1C2N2CN%15C(=O)N(CN%16C(=O)N(CN%17C(=O)N(CN%18C(=O)N(CN%19C(=O)N(CN%20C(=O)N(CN1C2=O)C%14C%13%20)C%12C%11%19)C%10C9%18)C8C7%17)C6C5%16)C4C3%15 (stereo not drawn) [CB[7]] | – | – | solubility in aqueous acid ([2]; 3M HCl): about 700 mM |
| Cl.Cl.NCC#CC#CCN1CCCC1 [Compound 5′, N-6-pyrrolidinium-hexa-2,4-diynyl ammonium dichloride] | -4.452 ± 0.057 | 9.29 cal/(mol·K) | – |
| C(C#CCN1CCCC1)#CCN1CCCC1.Cl.Cl [Compound 6′, 1,6-Dipyrrolidinium-2,4-hexadiyne dichloride] | -3.718 ± 0.044 | 12.8 cal/(mol·K) | – |
